Assay results taken from patent US8829015B2 (Novartis AG, priority 2005, dated 2014).
Several values for one entry are separate records, joined by “and”; a condition that tells them apart may be missing. Equal values may be shown once. Entries after “also recorded” stand apart in the source; their conditions may differ. Where a name gives a salt, the structure may show the parent alone. Blank lines part the entries; values can stand above or below the compound they belong to.

Experiments:
[1] = Equilibration of A-B mixtures of the hydrochloride salt in solvents; format: physicochemical
[2] = Form conversion on exposure to solvent vapor, air, moisture or room conditions; format: physicochemical
[3] = Equilibration of free base forms with solvents, XRPD; format: physicochemical; settings: seven solvents (ethanol absolute, methanol, tetrahydrofuran, water, tetrahydrofuran/water, ethanol/water, methanol/water 1:1), one day, 25° C.
Source text: The solid part was investigated by XRPD.

[4] = Equilibration of hydrochloride forms A, B and C with solvents, XRPD; format: physicochemical
Source text: Then the solutions were filtered and the solid part investigated by XRPD.

[5] = Intrinsic dissolution rate (rotating disk); format: physicochemical
Method: Intrinsic Dissolution Rate (IDR): Dissolution rate measurements were performed at 37° C. using the rotating disk method (VanKell Instrument). A single rotation speed of 200 rpm was used. For IDR in 0.1N HCl, an 800 mL volume, and for IDR in water, a 200 mL volume were used. The solution was continuously pumped through a UV measuring cell and recycled to the dissolution vessel.
The measurements were carried out on a VanKel instrument using a Cary 100 photometer.

[6] = Stability studies on storage; format: physicochemical; settings: for form after storage: 1 month at 80° C. and 75% relative humidity; for form transition after storage: storage at various relative humidities
[7] = Solubility by gravimetric techniques at different temperatures, residue by XRPD
physchem = settings: thermodynamic from solid
[8] = dissolution medium HCl 0.0001 N
[9] = dissolution medium pH 2 (citrate buffer)
[10] = in the presence of methanol vapor
[11] = 0.0001N HCl, 25° C., after 24 hours
[12] = 0.001N HCl, 25° C., after 24 hours
[13] = 0.001N HCl, 50° C., after 24 hours
[14] = 0.01N HCl, 25° C., after 24 hours
[15] = 0.1N HCl, 50° C., after 24 hours
[16] = Methanol, 50° C., after 24 hours
[17] = Methanol/Water (95/5) v/v, 20° C., 1 hour
[18] = Methanol/Water (95/5) v/v, 45° C., 1 hour
[19] = Methanol/Water (95/5) v/v, −10° C., 24 hours
[20] = Methanol/Water (99.5/0.5) v/v, 20° C., 10 minutes
[21] = Methanol/Water (99.5/0.5) v/v, 20° C., 1 hour
[22] = Methanol/Water (99.5/0.5) v/v, 45° C., 10 minutes
[23] = Methanol/Water (99.5/0.5) v/v, 45° C., 1 hour
[24] = Methanol/Water (99.5/0.5) v/v, 45° C., 24 hours
[25] = Methanol/Water (99.5/0.5) v/v, −10° C., 10 minutes
[26] = Methanol/Water (99.5/0.5) v/v, −10° C., 1 hour
[27] = methanol/water (95/5) v/v, 20 °C, organic solvent or mixture
[28] = methanol/water (95/5) v/v, 45 °C, organic solvent or mixture
[29] = methanol/water (95/5) v/v, -10 °C, organic solvent or mixture
[30] = methanol/water (99.5/0.5) v/v, 20 °C, organic solvent or mixture
[31] = methanol/water (99.5/0.5) v/v, 45 °C, organic solvent or mixture

Structure (SMILES): Cc1cn(-c2cc(NC(=O)c3ccc(C)c(Nc4nccc(-c5cccnc5)n4)c3)cc(C(F)(F)F)c2)cn1
Form after equilibration of A-B mixture ([1]; Methanol 0.25% water, 24 hours 40° C., ? = extra peak (unclear whether new form or free base)): B/? | Form after equilibration of A-B mixture ([1]; Methanol 10% water, significant enrichment in A after 12 hours): A/B

Structure (SMILES): Cc1cn(-c2cc(NC(=O)c3ccc(C)c(Nc4nccc(-c5cccnc5)n4)c3)cc(C(F)(F)F)c2)cn1 [Form A′ of the hydrochloride salt]
form conversion ([2]; under room conditions): converts within a few minutes under room conditions to form A

Structure (SMILES): Cc1cn(-c2cc(NC(=O)c3ccc(C)c(Nc4nccc(-c5cccnc5)n4)c3)cc(C(F)(F)F)c2)cn1 [Form C′ of the hydrochloride salt]
form conversion ([2]; under room conditions): converts within a few minutes under room conditions to a mixture of forms B and C

Structure (SMILES): Cc1cn(-c2cc(NC(=O)c3ccc(C)c(Nc4nccc(-c5cccnc5)n4)c3)cc(C(F)(F)F)c2)cn1 [Form SC of the hydrochloride salt]
form conversion ([2]; exposed to air): converts quickly to the monohydrate form C when exposed to air

Structure (SMILES): Cc1cn(-c2cc(NC(=O)c3ccc(C)c(Nc4nccc(-c5cccnc5)n4)c3)cc(C(F)(F)F)c2)cn1 [Form SB of the hydrochloride salt]
form conversion ([2]; exposed to air): converts quickly to the monohydrate form B when exposed to air

More lines, main results first:

form transition on equilibration [3]: No form transitions occurred
Structure (SMILES): Cc1cn(-c2cc(NC(=O)c3ccc(C)c(Nc4nccc(-c5cccnc5)n4)c3)cc(C(F)(F)F)c2)cn1 [form A/form B (1:1)]

form conversion ([2]; exposed to moisture): converts back to the monohydrate
Structure (SMILES): Cc1cn(-c2cc(NC(=O)c3ccc(C)c(Nc4nccc(-c5cccnc5)n4)c3)cc(C(F)(F)F)c2)cn1 [Form B′ of the hydrochloride salt]
form conversion ([2]; under room conditions): converts within a few minutes under room conditions to form B

form transition on equilibration ([4]; methanol, 50° C., 1 day): transitioned to form B | form transition on equilibration ([4]; methanol, one day, 25° C.): transitioned to form B | form transition on equilibration ([4]; tetrahydrofuran, 50° C., 1 day): to a mixture of forms B and C | form transition on equilibration ([4]; water, 50° C., 1 day): transitioned to form A | form transition on equilibration ([4]; water, one day, 25° C.): transitioned to form A | Intrinsic Dissolution Rate value [5, 8]: 0.0004 mg/min/cm^2 | Intrinsic Dissolution Rate value ([5]; dissolution medium HCl 0.001 N): 0.0057 mg/min/cm^2 | Intrinsic Dissolution Rate value ([5]; dissolution medium HCl 0.01 N): 0.0247 mg/min/cm^2 | Intrinsic Dissolution Rate value ([5]; dissolution medium Water): 0.000 mg/min/cm^2 | Intrinsic Dissolution Rate value [5, 9]: 0.0099 mg/min/cm^2 | form after storage [6]: showed a mixture with form A | form transition after storage [6]: No form transitions were observed | form conversion [2, 10]: converts to form B | Solubility [7, 11]: 1.67 mg/mL | XRPD (form of the solid) [7, 11]: C + A | Solubility [7, 12]: 1.29 mg/mL | XRPD (form of the solid) [7, 12]: C + A | Solubility [7, 13]: 6.72 mg/mL | Solubility [7, 14]: 1.37 mg/mL | Solubility ([7]; 0.01N HCl, 50° C., after 24 hours): 1.69 mg/mL | Solubility ([7]; 0.1N HCl, 25° C., after 24 hours): 2.35 mg/mL | Solubility [7, 15]: 8.30 mg/mL | XRPD (form of the solid) [7, 15]: A+ | Solubility ([7]; Methanol, 25° C., after 24 hours): 18.20 mg/mL | Solubility [7, 16]: 55.26 mg/mL | Solubility ([7]; Methanol/Water (95/5) v/v, 20° C., 10 minutes): 18.88 mg/mL | Solubility [7, 17]: 13.03 mg/mL | Solubility ([7]; Methanol/Water (95/5) v/v, 20° C., 24 hours): 11.76 mg/mL | Solubility ([7]; Methanol/Water (95/5) v/v, 45° C., 10 minutes): 37.68 mg/mL | Solubility [7, 18]: 31.15 mg/mL | Solubility ([7]; Methanol/Water (95/5) v/v, 45° C., 24 hours): 32.26 mg/mL | Solubility ([7]; Methanol/Water (95/5) v/v, −10° C., 10 minutes): 9.73 mg/mL | Solubility ([7]; Methanol/Water (95/5) v/v, −10° C., 1 hour): 7.74 mg/mL | Solubility [7, 19]: 11.00 mg/mL | Solubility [7, 20]: 24.34 mg/mL | Solubility [7, 21]: 17.70 mg/mL | XRPD (form of the solid) [7, 21]: C + B | Solubility ([7]; Methanol/Water (99.5/0.5) v/v, 20° C., 24 hours): 12.09 mg/mL | Solubility [7, 22]: 39.86 mg/mL | Solubility [7, 23]: 46.15 mg/mL | Solubility [7, 24]: 45.59 mg/mL | XRPD (form of the solid) [7, 24]: C + B | Solubility [7, 25]: 11.91 mg/mL | Solubility [7, 26]: 7.99 mg/mL | Solubility ([7]; Methanol/Water (99.5/0.5) v/v, −10° C., 24 hours): 6.12 mg/mL | Solubility ([7]; Water, 25° C., after 24 hours): 1.47 mg/mL | XRPD (form of the solid) ([7]; Water, 25° C., after 24 hours): C + A | Solubility ([7]; Water, 50° C., after 24 hours): 1.31 mg/mL
Structure (SMILES): Cc1cn(-c2cc(NC(=O)c3ccc(C)c(Nc4nccc(-c5cccnc5)n4)c3)cc(C(F)(F)F)c2)cn1 [Form C of the hydrochloride salt]
form transition on equilibration ([4]; ethanol/water (99:1), 50° C., 1 day): transitioned to a mixture of all three forms | Intrinsic Dissolution Rate value ([5]; dissolution medium HCl 0.1 N): 0.2323 mg/min/cm^2 and 0.3213 mg/min/cm^2

Intrinsic Dissolution Rate value ([5]; dissolution medium HCl 0.1 N): 0.2508 mg/min/cm^2 | Intrinsic Dissolution Rate value [5, 9]: 0.0250 mg/min/cm^2 | form after storage [6]: showed a mixture with form A | form conversion [2, 10]: converts to form B
Structure (SMILES): Cc1cn(-c2cc(NC(=O)c3ccc(C)c(Nc4nccc(-c5cccnc5)n4)c3)cc(C(F)(F)F)c2)cn1 [Amorphous form of the hydrochloride salt]
form transition after storage [6]: spontaneously crystallizes to form A; also recorded: spontaneously converts to the form A hydrochloride salt

form transition on equilibration ([4]; methanol, one day, 25° C.): transitioned to form B | form transition on equilibration ([4]; methanol/HCl 0.1N, 50° C., 1 day): transitioned to form C | form transition on equilibration ([4]; methanol/water (99:1), 50° C., 1 day): transitioned to form C | form transition on equilibration ([4]; methanol/water (99.3:0.7), 50° C., 1 day): transitioned to form C | Intrinsic Dissolution Rate value [5, 8]: 0.0003 mg/min/cm^2 | Intrinsic Dissolution Rate value ([5]; dissolution medium HCl 0.001 N): 0.0089 mg/min/cm^2 | Intrinsic Dissolution Rate value ([5]; dissolution medium HCl 0.01 N): 0.0178 mg/min/cm^2 | Intrinsic Dissolution Rate value ([5]; dissolution medium Water): 0.0004 mg/min/cm^2 | Intrinsic Dissolution Rate value [5, 9]: 0.0076 mg/min/cm^2 | form transition after storage [6]: No form transitions were observed | form conversion [2, 10]: converts to form B | solubility at 24 h (physchem; 0.001N HCl, 25 °C, aqueous buffer): 0.92 mg/mL | solubility at 24 h (physchem; 0.01N HCl, 50 °C, simulated gastric fluid): 0.85 mg/mL | solubility at 24 h (physchem; 0.1N HCl, 25 °C, simulated gastric fluid): 1.32 mg/mL | solubility at 24 h (physchem; methanol, 25 °C, organic solvent or mixture): 13.8 mg/mL | solubility at 24 h (physchem; methanol, 50 °C, organic solvent or mixture): 52.5 mg/mL | solubility at 10 min (physchem; [27]): 25.7 mg/mL | solubility at 24 h (physchem; [27]): 13.1 mg/mL | solubility at 10 min (physchem; [28]): 46.1 mg/mL | solubility at 1 h (physchem; [28]): 61.1 mg/mL | solubility at 10 min (physchem; [29]): 12.3 mg/mL | solubility at 1 h (physchem; [29]): 14.4 mg/mL | solubility at 10 min (physchem; [30]): 33.7 mg/mL | solubility at 24 h (physchem; [30]): 12.2 mg/mL | solubility at 10 min (physchem; [31]): 52.2 mg/mL | solubility at 1 h (physchem; [31]): 62.5 mg/mL | solubility at 24 h (physchem; [31]): 41.9 mg/mL | solubility at 24 h (physchem; methanol/water (99.5/0.5) v/v, -10 °C, organic solvent or mixture): 4.96 mg/mL | solubility at 24 h (physchem; water, 50 °C): 1.03 mg/mL | Solubility [7, 11]: 0.45 mg/mL | Solubility [7, 13]: 0.79 mg/mL | Solubility [7, 14]: 0.43 mg/mL | Solubility [7, 15]: 2.46 mg/mL | XRPD (form of the solid) [7, 16]: C + B | Solubility [7, 17]: 28.18 mg/mL | XRPD (form of the solid) [7, 18]: A + B + C | Solubility [7, 19]: 4.74 mg/mL | XRPD (form of the solid) [7, 20]: A + B | XRPD (form of the solid) [7, 21]: A + B | XRPD (form of the solid) [7, 22]: A + B | XRPD (form of the solid) [7, 23]: C + B | XRPD (form of the solid) [7, 24]: C + B | Solubility [7, 25]: 24.01 mg/mL | Solubility [7, 26]: 26.37 mg/mL | Solubility ([7]; Water, 25° C., after 24 hours): 0.35 mg/mL
Structure (SMILES): Cc1cn(-c2cc(NC(=O)c3ccc(C)c(Nc4nccc(-c5cccnc5)n4)c3)cc(C(F)(F)F)c2)cn1 [Form A of the hydrochloride salt]
form transition on equilibration ([4]; methanol, 50° C., 1 day): transitioned to a mixture of forms B and C | form transition on equilibration ([4]; methanol/HCl 0.1N, one day, 25° C.): transitioned to form B with a small amount of form C | form transition on equilibration ([4]; methanol/water (99:1), one day, 25° C.): transitioned to form C with a small amount of form B | form transition on equilibration ([4]; methanol/water (99.3:0.7), one day, 25° C.): transitioned to form B with a small amount of form C | Intrinsic Dissolution Rate value ([5]; dissolution medium HCl 0.1 N): 0.6778 mg/min/cm^2 and 1.2467 mg/min/cm^2
